This is an account of results in ChEMBL document CHEMBL4706552, “Discovery of 4-methyl-N-(4-((4-methylpiperazin- 1-yl)methyl)-3-(trifluoromethyl)phenyl)-3-((6-(pyridin-3-yl)-1H-pyrazolo[3,4-d]pyrimidin-4-yl)-oxy)benzamide as a potent inhibitor of RET and its gatekeeper mutant” (Eur J Med Chem, 2020).

Data set [1] concerns the target Coiled-coil domain-containing protein 6/Tyrosine-protein kinase receptor RET (Homo sapiens) (UniProt P07949+Q16204). In words: Inhibition of CCDC6-RET fusion protein in human LC-2-ad cells assessed as reduction in cell proliferation measured after 48 hrs by MTS assay. Type of data set: cell-based.
The subject of data set [2] is BaF3. Kind of data set: Antitumor activity against KIF5B-RET V804M mutant fusion protein expressing mouse BaF3 cells implanted in BALB/c mouse assessed as tumor growth inhibition at 30 to 50 mg/kg, iv administered once daily for 7 days relative to control. Type of data set: functional. As to conditions: dose 30-50 mg/kg, time 7 day.
The target in data set [3] is Kinesin-1 heavy chain/ Tyrosine-protein kinase receptor RET (Homo sapiens) (UniProt P07949+P33176). In words: Inhibition of KIF5B-RET fusion protein (unknown origin) expressed in mouse BaF3 cells assessed as reduction in […] measured after 4 hrs by Western blot analysis. It is filed as cell-based.
A short description of data set [4]: Half life in Sprague-Dawley rat at 10 mg/kg, po. Type of data set: ADME, organism-based. As to conditions: in vivo.

Kinesin-1 heavy chain/ Tyrosine-protein kinase receptor RET (Homo sapiens), sequence (P07949 29-1114 limits assumed): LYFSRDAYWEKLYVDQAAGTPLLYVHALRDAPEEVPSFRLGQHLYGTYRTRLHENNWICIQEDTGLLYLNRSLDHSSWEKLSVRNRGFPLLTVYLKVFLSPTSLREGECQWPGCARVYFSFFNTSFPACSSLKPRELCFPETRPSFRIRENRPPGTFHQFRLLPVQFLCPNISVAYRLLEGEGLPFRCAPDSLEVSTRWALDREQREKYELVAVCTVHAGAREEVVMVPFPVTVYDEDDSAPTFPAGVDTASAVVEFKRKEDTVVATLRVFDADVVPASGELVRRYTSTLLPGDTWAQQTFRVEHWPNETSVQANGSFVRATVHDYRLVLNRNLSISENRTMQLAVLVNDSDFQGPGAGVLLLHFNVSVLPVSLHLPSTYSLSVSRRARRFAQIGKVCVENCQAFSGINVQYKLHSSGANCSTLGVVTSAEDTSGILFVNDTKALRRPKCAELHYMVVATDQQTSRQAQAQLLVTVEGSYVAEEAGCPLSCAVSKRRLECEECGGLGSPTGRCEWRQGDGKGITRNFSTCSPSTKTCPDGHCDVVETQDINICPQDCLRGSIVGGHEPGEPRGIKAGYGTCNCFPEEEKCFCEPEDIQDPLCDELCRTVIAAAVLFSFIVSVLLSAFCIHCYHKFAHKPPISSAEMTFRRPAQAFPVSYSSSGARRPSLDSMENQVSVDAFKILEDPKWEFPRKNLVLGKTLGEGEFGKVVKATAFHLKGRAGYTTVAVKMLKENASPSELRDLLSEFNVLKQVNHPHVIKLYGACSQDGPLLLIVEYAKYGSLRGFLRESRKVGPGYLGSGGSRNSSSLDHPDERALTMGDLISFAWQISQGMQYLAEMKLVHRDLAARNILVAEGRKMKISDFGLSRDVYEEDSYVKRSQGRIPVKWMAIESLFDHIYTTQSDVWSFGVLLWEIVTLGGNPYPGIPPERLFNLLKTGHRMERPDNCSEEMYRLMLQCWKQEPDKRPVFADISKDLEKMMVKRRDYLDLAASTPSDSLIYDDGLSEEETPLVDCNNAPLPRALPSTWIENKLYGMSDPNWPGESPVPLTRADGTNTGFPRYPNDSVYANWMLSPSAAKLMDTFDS
Kinesin-1 heavy chain/ Tyrosine-protein kinase receptor RET (Homo sapiens), sequence (P33176 2-963 partner limits assumed): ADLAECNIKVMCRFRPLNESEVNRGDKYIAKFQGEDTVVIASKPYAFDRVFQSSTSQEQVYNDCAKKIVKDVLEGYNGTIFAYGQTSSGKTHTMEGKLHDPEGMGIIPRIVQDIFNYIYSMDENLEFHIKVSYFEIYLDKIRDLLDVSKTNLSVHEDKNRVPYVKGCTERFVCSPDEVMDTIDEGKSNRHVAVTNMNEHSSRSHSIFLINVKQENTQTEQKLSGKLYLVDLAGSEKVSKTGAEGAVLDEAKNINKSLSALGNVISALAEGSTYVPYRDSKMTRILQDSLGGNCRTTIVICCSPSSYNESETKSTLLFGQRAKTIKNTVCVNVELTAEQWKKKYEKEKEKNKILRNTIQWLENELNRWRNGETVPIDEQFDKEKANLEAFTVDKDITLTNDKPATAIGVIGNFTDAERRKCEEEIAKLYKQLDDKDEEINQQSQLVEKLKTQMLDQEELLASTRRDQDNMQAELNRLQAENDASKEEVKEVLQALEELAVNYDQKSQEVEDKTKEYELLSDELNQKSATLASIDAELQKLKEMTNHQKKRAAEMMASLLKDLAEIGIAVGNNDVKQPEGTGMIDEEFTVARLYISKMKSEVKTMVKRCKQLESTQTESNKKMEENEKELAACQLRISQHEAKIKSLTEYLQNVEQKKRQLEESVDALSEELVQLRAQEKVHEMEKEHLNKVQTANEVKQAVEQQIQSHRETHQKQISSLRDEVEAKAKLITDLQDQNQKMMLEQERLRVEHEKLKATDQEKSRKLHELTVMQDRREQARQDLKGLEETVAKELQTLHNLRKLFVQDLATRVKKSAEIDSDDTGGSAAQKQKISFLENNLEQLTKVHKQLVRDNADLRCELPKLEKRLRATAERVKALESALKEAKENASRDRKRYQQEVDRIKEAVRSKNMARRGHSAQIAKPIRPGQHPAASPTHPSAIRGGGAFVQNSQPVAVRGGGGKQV
Coiled-coil domain-containing protein 6/Tyrosine-protein kinase receptor RET (Homo sapiens), sequence (P07949 29-1114 limits assumed): as the sequence (P07949 29-1114 limits assumed) above
Coiled-coil domain-containing protein 6/Tyrosine-protein kinase receptor RET (Homo sapiens), sequence (Q16204 2-474 partner limits assumed): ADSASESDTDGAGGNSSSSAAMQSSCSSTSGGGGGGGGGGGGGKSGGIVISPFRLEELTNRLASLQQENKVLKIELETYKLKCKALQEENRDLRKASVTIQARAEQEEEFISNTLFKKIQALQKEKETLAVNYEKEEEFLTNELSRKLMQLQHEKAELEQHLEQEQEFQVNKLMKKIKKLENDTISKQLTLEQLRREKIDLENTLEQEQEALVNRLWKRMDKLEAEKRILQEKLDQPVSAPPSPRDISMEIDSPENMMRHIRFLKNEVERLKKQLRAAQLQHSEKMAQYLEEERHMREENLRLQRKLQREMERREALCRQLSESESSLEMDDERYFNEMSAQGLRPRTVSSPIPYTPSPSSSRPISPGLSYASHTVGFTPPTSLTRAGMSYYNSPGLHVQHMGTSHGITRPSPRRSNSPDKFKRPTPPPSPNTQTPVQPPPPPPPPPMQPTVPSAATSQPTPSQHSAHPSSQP

Turning to `Cc1ccc(C(=O)Nc2ccc(CN3CCN(C)CC3)c(C(F)(F)F)c2)cc1Oc1nc(-c2cccnc2)nc2[nH]ncc12`, in data set [1], the GI50 – broadly, the concentration giving 50% growth inhibition – is 38 nM. The TGI (usually how far tumour growth fell short of that in controls) in data set [2] was greater than 60%. Besides, the inhibition result in data set [3] is “Dose-dependent effect”. Besides, in data set [4], the half-life (as a rule, the time in which the quantity being followed falls by half) was 7.59 h.
